Test [1] deals with Calcium/calmodulin-dependent protein kinase type II subunit gamma (Homo sapiens) (UniProt Q13555). Put plainly: Selectivity interaction (LanthaScreen Eu Kinase Binding Assay) EUB0001632a CAMK2G. Particulars: at 10 µM. (In TR-FRET formats the signal depends on donor and acceptor labels being close together.)
The target of test [2] is Mitogen-activated protein kinase 11 (Homo sapiens) (UniProt Q15759). In words: Selectivity interaction (Ambit KINOMEscan and KiNATiv profiling in Jurkat cells) EUB0000090b MAPK11. Format: cell-based. Particulars: at 1 µM.
The target in test [3] is T1, Serine/threonine-protein kinase TAO2 (Homo sapiens) (UniProt Q9UL54).
T1 sequence (whole entry): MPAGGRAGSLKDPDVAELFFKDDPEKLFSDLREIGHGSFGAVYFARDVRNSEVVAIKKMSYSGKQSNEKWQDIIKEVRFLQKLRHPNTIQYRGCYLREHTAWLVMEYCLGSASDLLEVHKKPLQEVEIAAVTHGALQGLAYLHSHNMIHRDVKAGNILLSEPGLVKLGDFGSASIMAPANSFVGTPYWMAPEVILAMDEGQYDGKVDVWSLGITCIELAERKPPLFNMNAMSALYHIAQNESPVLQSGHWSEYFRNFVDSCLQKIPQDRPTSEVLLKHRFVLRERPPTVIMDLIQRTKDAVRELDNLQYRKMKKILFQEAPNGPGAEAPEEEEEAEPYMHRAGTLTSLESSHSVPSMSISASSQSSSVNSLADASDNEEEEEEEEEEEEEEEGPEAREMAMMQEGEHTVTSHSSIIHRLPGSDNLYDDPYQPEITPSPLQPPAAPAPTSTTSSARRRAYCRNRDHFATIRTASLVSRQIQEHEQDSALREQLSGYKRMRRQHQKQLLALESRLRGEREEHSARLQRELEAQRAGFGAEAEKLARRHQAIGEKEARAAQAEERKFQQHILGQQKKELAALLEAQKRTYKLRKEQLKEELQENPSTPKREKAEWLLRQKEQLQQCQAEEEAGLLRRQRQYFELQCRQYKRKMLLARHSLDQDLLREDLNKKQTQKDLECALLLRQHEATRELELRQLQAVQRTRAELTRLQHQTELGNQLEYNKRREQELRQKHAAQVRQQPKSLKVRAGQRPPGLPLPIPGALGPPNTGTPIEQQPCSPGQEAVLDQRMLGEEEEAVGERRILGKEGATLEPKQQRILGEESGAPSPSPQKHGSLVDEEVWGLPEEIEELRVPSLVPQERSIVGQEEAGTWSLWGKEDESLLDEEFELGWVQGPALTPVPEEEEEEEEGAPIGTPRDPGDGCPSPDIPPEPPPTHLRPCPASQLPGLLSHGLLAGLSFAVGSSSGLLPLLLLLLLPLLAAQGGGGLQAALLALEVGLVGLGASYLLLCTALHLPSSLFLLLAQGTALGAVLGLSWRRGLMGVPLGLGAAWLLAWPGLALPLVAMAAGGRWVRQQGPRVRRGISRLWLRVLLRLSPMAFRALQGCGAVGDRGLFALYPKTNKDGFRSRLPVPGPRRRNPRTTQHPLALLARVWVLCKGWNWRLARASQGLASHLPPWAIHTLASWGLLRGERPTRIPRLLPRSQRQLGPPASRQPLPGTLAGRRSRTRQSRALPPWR
Put plainly: Selectivity interaction (KinomeScan (DiscoverX)) EUB0000655a TAOK2. Particulars: at 10 µM.

Test [4] addresses Cyclin-dependent kinase 2 (Homo sapiens, UniProt P24941). In words: Selectivity interaction (ActivX KiNativ screen (ex vivo kinase selectivity in human PBMCs)) EUB0001619a CDK2. The format is cell-based. Particulars: PBMC, at 1 µM.
The target of test [5] is Calcium/calmodulin-dependent protein kinase type II subunit delta (Homo sapiens) (UniProt Q13557). Put plainly: Selectivity interaction (KinomeScan (DiscoverX)) EUB0001049a CAMK2D. Particulars: at 1 µM.
For test [6], the target named is T2, Cyclin-dependent kinase 11A (Homo sapiens) (UniProt Q9UQ88).
T2 sequence (whole entry): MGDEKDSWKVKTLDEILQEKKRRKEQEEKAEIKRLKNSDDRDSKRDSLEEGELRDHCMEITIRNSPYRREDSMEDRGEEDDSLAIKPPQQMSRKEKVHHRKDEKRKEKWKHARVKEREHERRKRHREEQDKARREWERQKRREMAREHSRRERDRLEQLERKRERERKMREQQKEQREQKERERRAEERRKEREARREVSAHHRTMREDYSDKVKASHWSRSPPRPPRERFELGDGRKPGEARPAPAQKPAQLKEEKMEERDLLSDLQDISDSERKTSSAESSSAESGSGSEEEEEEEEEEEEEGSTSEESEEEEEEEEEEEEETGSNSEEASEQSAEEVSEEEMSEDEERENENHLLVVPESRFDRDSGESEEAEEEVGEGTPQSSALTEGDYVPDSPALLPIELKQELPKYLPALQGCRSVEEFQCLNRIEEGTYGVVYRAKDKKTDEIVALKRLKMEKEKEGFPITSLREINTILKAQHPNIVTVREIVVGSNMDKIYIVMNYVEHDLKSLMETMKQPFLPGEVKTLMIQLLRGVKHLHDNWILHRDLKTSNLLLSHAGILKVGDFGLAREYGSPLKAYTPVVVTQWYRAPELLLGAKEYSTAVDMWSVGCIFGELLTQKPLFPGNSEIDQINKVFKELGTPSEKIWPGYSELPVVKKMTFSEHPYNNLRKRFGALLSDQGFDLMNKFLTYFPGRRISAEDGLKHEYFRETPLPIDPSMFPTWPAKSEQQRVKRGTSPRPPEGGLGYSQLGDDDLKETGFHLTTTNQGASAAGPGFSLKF
Put plainly: Selectivity interaction (KinomeScan (DiscoverX)) EUB0000092b CDK11A. Particulars: at 10 µM.

Test [7] deals with Bone morphogenetic protein receptor type-1B (Homo sapiens, UniProt O00238). Put plainly: Selectivity interaction (KinomeScan (DiscoverX)) EUB0000092b BMPR1B. Particulars: at 10 µM.
In test [8] the target is Eukaryotic translation initiation factor 2-alpha kinase 1 (Homo sapiens) (UniProt Q9BQI3). Put plainly: Selectivity interaction (KinomeScan (DiscoverX)) EUB0000092b EIF2AK1. The settings on record: at 10 µM.
The target of test [9] is T3, Calcium/calmodulin-dependent protein kinase type IV (Homo sapiens) (UniProt Q16566).
T3 sequence (whole entry): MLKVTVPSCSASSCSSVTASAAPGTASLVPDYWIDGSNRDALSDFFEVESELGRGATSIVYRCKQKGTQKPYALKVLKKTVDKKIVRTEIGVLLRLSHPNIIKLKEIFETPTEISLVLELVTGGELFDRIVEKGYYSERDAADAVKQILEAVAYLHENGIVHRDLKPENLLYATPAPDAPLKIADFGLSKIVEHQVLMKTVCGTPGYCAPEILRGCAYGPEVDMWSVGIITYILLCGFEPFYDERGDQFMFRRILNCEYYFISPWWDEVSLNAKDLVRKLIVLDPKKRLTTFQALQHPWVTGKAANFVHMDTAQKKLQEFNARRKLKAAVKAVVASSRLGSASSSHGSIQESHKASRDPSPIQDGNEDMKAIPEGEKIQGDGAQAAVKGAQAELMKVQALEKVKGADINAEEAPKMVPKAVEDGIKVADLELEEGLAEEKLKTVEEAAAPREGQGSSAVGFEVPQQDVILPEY
In words: Selectivity interaction (KinomeScan (DiscoverX)) EUB0000045b CAMK4.

We go through seven molecules from ChEMBL document CHEMBL5465560, “Selectivity Literature for EUbOPEN Chemogenomic Library” (2024).

Chain of Eukaryotic translation initiation factor 2-alpha kinase 1 (Homo sapiens) (Q9BQI3 whole entry): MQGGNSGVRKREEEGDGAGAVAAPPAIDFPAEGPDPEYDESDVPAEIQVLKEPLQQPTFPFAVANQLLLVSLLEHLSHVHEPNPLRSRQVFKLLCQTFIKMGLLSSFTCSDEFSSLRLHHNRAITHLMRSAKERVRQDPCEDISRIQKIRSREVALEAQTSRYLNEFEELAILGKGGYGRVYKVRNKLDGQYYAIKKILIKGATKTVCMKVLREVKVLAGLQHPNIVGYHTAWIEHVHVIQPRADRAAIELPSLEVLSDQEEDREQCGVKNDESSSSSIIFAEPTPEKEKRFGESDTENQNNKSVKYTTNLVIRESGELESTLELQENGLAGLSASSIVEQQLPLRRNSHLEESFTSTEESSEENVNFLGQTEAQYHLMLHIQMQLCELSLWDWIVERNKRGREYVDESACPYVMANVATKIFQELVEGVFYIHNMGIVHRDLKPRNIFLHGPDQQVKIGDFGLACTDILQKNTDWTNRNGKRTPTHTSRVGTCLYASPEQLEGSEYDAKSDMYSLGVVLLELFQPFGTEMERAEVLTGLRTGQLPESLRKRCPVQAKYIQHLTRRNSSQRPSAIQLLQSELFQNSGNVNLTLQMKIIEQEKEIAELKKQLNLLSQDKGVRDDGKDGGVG
Chain of Calcium/calmodulin-dependent protein kinase type II subunit gamma (Homo sapiens) (Q13555 whole entry): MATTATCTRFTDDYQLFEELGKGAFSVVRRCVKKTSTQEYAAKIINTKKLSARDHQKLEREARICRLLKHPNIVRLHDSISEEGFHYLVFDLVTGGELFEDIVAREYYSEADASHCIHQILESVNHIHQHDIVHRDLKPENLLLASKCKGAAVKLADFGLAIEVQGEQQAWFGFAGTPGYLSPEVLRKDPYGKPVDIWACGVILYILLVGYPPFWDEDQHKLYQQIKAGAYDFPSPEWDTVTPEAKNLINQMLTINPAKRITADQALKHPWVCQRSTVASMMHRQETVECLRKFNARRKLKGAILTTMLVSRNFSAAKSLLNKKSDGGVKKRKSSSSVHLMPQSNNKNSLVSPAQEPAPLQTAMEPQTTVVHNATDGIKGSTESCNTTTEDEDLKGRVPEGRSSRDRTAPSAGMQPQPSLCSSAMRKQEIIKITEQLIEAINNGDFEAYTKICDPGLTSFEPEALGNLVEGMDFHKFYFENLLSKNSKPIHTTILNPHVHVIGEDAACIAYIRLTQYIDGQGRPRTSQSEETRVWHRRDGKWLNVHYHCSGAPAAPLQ
Chain of Bone morphogenetic protein receptor type-1B (O00238 whole entry): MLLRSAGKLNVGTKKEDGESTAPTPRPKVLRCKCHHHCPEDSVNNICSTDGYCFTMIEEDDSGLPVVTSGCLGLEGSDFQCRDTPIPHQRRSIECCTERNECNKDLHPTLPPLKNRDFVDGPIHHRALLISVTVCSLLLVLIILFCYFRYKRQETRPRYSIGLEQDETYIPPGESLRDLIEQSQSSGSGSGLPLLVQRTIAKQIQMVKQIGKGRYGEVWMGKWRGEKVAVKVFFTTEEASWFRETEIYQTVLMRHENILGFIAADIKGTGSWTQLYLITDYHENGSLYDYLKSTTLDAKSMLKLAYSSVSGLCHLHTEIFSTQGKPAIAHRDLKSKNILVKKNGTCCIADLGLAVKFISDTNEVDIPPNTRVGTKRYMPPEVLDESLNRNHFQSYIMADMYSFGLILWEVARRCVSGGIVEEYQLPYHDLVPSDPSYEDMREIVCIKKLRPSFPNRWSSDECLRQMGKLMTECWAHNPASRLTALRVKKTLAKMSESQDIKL
Chain of Calcium/calmodulin-dependent protein kinase type II subunit delta (Homo sapiens) (Q13557 whole entry): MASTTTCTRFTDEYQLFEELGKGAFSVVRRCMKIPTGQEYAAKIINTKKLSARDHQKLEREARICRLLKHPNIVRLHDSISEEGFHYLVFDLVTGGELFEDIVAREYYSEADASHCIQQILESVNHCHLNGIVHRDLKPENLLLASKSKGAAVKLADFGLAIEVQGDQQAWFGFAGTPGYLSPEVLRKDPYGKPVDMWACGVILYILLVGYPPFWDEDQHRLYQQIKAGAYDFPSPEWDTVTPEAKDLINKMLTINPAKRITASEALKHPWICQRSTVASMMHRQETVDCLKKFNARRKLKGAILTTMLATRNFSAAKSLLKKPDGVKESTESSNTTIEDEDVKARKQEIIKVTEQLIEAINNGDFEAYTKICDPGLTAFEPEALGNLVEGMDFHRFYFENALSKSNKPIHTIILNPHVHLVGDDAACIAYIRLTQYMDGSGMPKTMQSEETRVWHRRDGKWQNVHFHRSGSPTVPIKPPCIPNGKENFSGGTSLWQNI
Chain of Mitogen-activated protein kinase 11 (Homo sapiens) (Q15759 whole entry): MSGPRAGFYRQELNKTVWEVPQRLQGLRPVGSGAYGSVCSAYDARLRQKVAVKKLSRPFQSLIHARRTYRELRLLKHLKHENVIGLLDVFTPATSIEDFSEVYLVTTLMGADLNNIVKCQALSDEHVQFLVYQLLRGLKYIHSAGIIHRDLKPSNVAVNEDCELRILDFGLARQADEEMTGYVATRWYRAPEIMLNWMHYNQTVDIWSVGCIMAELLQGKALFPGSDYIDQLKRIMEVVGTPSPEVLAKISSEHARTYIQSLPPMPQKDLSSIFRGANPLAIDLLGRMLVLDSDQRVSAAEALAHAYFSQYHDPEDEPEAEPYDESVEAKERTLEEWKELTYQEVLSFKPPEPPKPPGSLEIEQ

Take `Cn1cc(-n2cnc3c(NCc4nc5cc(Cl)c(Cl)cc5[nH]4)nc(N4CCOCC4)nc32)cn1`: in [1], the % of inhibition is -8.35%.
For `CN(C)C/C=C/C(=O)Nc1ccc(C(=O)N2CCCC(Nc3ncc(Cl)c(-c4c[nH]c5ccccc45)n3)C2)cc1` (stereo not given), in [2], the % of control turned out to be 97%.
Molecule `CN(C)CCOc1ccc(-c2nc(-c3ccncc3)c(-c3ccc4c(c3)CC/C4=N\O)[nH]2)cc1` gave a % of control in test [3] of 65%.
`N#Cc1cccc(-c2c[nH]c3ncnc(N4CCOCC4)c23)c1`: the % of inhibition in test [4] turned out to be 9%.
On to `COc1cc(Nc2nc(C)cc(-c3cnn4nc(OC)ccc34)n2)cc(C(F)(F)F)c1`, for which the % of control in [5] was 100%.
With `CCC(=O)N1CCN(c2ccc(-n3c(=O)ccc4cnc5ccc(-c6cnc7ccccc7c6)cc5c43)cc2C(F)(F)F)CC1`, the values for the % of control in [6], in test [7] and in test [8] were 1.2%, 100% and 57%, respectively.
For the molecule `C=CC(=O)Nc1cc(-n2c(=O)ccc3cnc4ccc(-c5ccc(NS(C)(=O)=O)cc5)cc4c32)ccc1C`, the % of control in [9] (at 1 µM) turned out to be 100%; in test [9] (at 10 µM) it was 72%.
